Our source for the IC50 values is patent publication US12448373B2, “Azetidinyl-acetamides as CXCR7 inhibitors” (CHEMOCENTRYX, INC., priority 2021, dated 2025).

Some results are limits rather than exact numbers.

T1 sequence (P25106 whole entry): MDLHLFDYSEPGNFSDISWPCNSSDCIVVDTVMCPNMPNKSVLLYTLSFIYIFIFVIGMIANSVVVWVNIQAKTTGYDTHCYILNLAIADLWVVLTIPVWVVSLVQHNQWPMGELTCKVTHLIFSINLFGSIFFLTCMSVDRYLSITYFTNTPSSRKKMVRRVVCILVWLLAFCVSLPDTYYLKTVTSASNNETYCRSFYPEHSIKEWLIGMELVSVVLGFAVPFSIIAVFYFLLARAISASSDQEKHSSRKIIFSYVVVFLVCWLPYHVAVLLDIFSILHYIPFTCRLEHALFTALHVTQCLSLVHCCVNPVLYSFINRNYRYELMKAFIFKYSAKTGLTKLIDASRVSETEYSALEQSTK

The test addresses T1, CXCR7 (Homo sapiens, UniProt P25106).
T1 construct: expressed in transfected cells; host or cells: CHO cells (CHO-CXCR7), transgenes maintained with Hygromycin B and G418
Put plainly: CXCR7 β-arrestin recruitment assay in CHO-CXCR7 cells (ProLink/EA β-galactosidase complementation), induced by human SDF-1a. The class given is cell-based. Particulars: assay buffer, SDF-1a at EC50 concentration. Summed up:
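SDF-1α-induced β-arrestin recruitment was measured by enzyme-fragment complementation (ProLink-CXCR7 with β-arrestin-EA) in stable CHO cells. Agonist was dosed at its EC50, determined the same day, alongside serially diluted compound for 1.5 h at 37 °C. Fluorogenic galactoside substrate (0.4 mM, 30 min) was read at 360/465 nm, with IC50 from 3-parameter nonlinear regression.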
On the technique in general: Activated receptors often draw arrestin, which recruitment assays turn into a signal.
With `CC(C)(NC(=O)CC1(NC(=O)c2cc(-c3ccc(F)cc3F)on2)CN([C@H]2CC[C@@](C)(O)CC2)C1)c1ccccc1` [Example 1.267], the IC50 is under 5 nM.

Regarding `CC(C)CN1CC(CC(=O)NC(C)(C)c2ccnc3[nH]ccc23)(NC(=O)c2cc(-c3ccc(F)cc3F)on2)C1` [Example 1.077], the IC50 was under 5 nM.

On to `CC(C)(NC(=O)CC1(NC(=O)c2cc(-c3ccc(F)cc3F)on2)CN([C@H]2CC[C@](C)(O)CC2)C1)c1ccc(F)c(F)c1` [Example 1.257], for which the IC50 is 5 to 100 nM.

As for `Cc1cc(C)nc(C(C)(C)NC(=O)CC2(NC(=O)c3cc(-c4ccc(F)cc4F)on3)CN([C@H]3CC[C@](C)(O)CC3)C2)c1` [Example 1.106], the IC50 was under 5 nM.

Turning to `COc1cc(C)nc(C(C)(C)NC(=O)CC2(NC(=O)c3cc(-c4ccc(F)cc4F)on3)CN([C@H]3CC[C@](C)(O)CC3)C2)c1` [Example 1.339], the IC50 lay in the range of 5 to 100 nM.

Turning to `CC(C)(NC(=O)CC1(NC(=O)c2cc(-c3ccc(F)cc3F)on2)CN([C@H]2CC[C@@](C)(O)CC2)C1)c1cc(Cl)cc(Cl)c1` [Example 1.086], the IC50 is under 5 nM.

The compound `CC(C)(F)CN1CC(CC(=O)NC(C)(C)c2cccc(Cl)c2)(NC(=O)c2cc(-c3ccc(F)cc3F)on2)C1` [Example 1.096] registered an IC50 of 100 to 1000 nM.

Take `Cc1ccc(C(C)(C)NC(=O)CC2(NC(=O)c3cc(-c4ccc(F)cc4F)on3)CN([C@H]3CC[C@@](C)(O)CC3)C2)cc1C(F)(F)F` [Example 1.261]: the IC50 lay within 100 to 1000 nM.

`Cc1cc(C)nc(C(C)(C)NC(=O)CC2(NC(=O)c3nnc(-c4ccc(F)cc4F)o3)CN([C@H]3CC[C@@](C)(O)CC3)C2)n1` [Example 1.057] gave an IC50 of 100 to 1000 nM.

In the case of `Cc1cc(C)nc(C(C)(C)NC(=O)CC2(NC(=O)c3nnc(-c4ccc(F)cc4F)s3)CN(CC3CC3)C2)n1` [Example 1.030], the IC50 lay within 5 to 100 nM.

With `COc1cc(C(C)(C)NC(=O)CC2(NC(=O)c3cc(-c4ccc(F)cc4F)on3)CN([C@H]3CC[C@@](C)(O)CC3)C2)ccn1` [Example 1.188], the 50% inhibitory concentration (IC50) is under 5 nM.

`Cc1ccnc(C(C)(C)NC(=O)CC2(NC(=O)c3cc(-c4ccc(F)cc4F)on3)CN([C@H]3CC[C@](C)(O)CC3)C2)n1` [Example 1.202] had a concentration for half-maximal inhibition (IC50) of under 5 nM.

Take `CC(C)(NC(=O)CC1(NC(=O)c2cn(-c3ccc(F)cc3F)cn2)CN(C2CCCCC2)C1)c1cccc(Cl)c1` [Example 1.023]: the IC50 lay in the range of 1000 to 20000 nM.

In the case of `Cc1cccc(C(C)(C)NC(=O)CC2(NC(=O)c3cc(-c4ccc(F)cc4F)on3)CN([C@H]3CC[C@](C)(O)CC3)C2)n1` [Example 1.121], the IC50 was under 5 nM.

Compound `Cc1cncc(C(C)(C)NC(=O)CC2(NC(=O)c3cc(-c4ccc(F)cc4F)on3)CN([C@H]3CC[C@](C)(O)CC3)C2)c1` [Example 1.140] displayed an IC50 of 5 to 100 nM.

As to `CC(C)(NC(=O)CC1(NC(=O)c2cc(-c3ccc(F)cc3F)on2)CN([C@H]2CC[C@](C)(O)CC2)C1)c1c(F)cccc1F` [Example 1.258], the IC50 is 100 to 1000 nM.

Compound `CC(C)(NC(=O)CC1(NC(=O)c2cc(-c3ccc(F)cc3F)on2)CN([C@H]2CC[C@@](C)(O)CC2)C1)c1cc(F)cc(Cl)c1` [Example 1.123] gave a half-maximal inhibitory concentration (IC50) of under 5 nM.

`CC(C)(NC(=O)CC1(NC(=O)c2cc(-c3ccc(F)cc3F)n[nH]2)CN([C@H]2CC[C@](C)(O)CC2)C1)c1cccc(Cl)c1` [Example 1.054] yielded an IC50 of 1000 to 20000 nM.

Regarding `Cn1nc(-c2ccc(F)cc2F)cc1C(=O)NC1(CC(=O)NC(C)(C)c2cccc(Cl)c2)CN([C@H]2CC[C@@](C)(O)CC2)C1` [Example 1.058], the concentration for half-maximal inhibition (IC50) fell in the range of 1000 to 20000 nM.

`CC(C)CN1CC(CC(=O)NC(C)(C)c2cc(F)cc(F)c2)(NC(=O)c2cc(-c3ccc(F)cc3F)on2)C1` [Example 1.036] showed an IC50 of 5 to 100 nM.

In turn, `C[C@]1(O)CC[C@H](N2CC(CC(=O)NC3(c4cccc(Cl)c4)COC3)(NC(=O)c3cc(-c4ccc(F)cc4F)on3)C2)CC1` [Example 1.103] registered an IC50 of 5 to 100 nM.

In the case of `CC(C)(NC(=O)CC1(NC(=O)c2cc(-c3ccc(F)cc3F)on2)CN(C2CCCCC2(F)F)C1)c1ccccn1` (stereo not shown) [Example 1.311], the IC50 lay in the range of 5 to 100 nM.

Regarding `COc1ccc(F)c(C(C)(C)NC(=O)CC2(NC(=O)c3cc(-c4ccc(F)cc4F)on3)CN([C@H]3CC[C@@](C)(O)CC3)C2)c1` [Example 1.205], the IC50 lay within 5 to 100 nM.

Compound `COc1cccc(C(C)(C)NC(=O)CC2(NC(=O)c3cc(-c4ccc(F)cc4F)on3)CN(C3CCCCC3)C2)n1` [Example 1.272] returned an IC50 of 5 to 100 nM.

Turning to `CC(C)(NC(=O)CC1(NC(=O)c2cc(-c3ccc(F)cc3F)on2)CN(C2CCC3(CC2)CC3)C1)c1ccccn1` [Example 1.269], the IC50 was 5 to 100 nM.

In turn, `Cc1cc(C)nc(C(C)(C)NC(=O)CC2(NC(=O)c3cc(-c4ccc(F)cc4F)on3)CN(CC(C)C)C2)n1` [Example 1.037] yielded an IC50 of 5 to 100 nM.

Consider `CC(C)(NC(=O)CC1(NC(=O)c2cc(-c3ccc(F)cc3F)on2)CN(CC2CCCC2)C1)c1ccccn1` [Example 1.029], for which the IC50 was 5 to 100 nM.

Regarding `COC1(C)CCC(N2CC(CC(=O)NC(C)(C)c3ccccn3)(NC(=O)c3cc(-c4ccc(F)cc4F)on3)C2)CC1` (stereo not shown) [Example 1.285], the IC50 is 5 to 100 nM.

Consider `CN1CCC(N2CC(CC(=O)NC(C)(C)c3ccccn3)(NC(=O)c3cc(-c4ccc(F)cc4F)on3)C2)CC1` [Example 1.280], for which the IC50 lay in the range of 100 to 1000 nM.

Take `C[C@]1(O)CC[C@H](N2CC(CC(=O)NCc3cccc(Cl)c3)(NC(=O)c3cc(-c4ccc(F)cc4F)on3)C2)CC1` [Example 1.110]: the IC50 lay in the range of 1000 to 20000 nM.

The compound `O=C(CC1(NC(=O)c2cc(-c3ccc(F)cc3F)on2)CN(C2CCCCC2)C1)NC1(c2ccccc2)COC1` [Example 1.320] displayed an IC50 of 5 to 100 nM.

Consider `CC(C)(NC(=O)CC1(NC(=O)c2csc(-c3ccc(F)cc3F)n2)CN([C@H]2CC[C@](C)(O)CC2)C1)c1cccc(Cl)c1` [Example 1.051], for which the IC50 was 1000 to 20000 nM.

Take `CC(C)(NC(=O)CC1(NC(=O)c2cc(-c3ccc(F)cc3F)on2)CN(CC2CCC2)C1)c1ccccn1` [Example 1.020]: the IC50 fell in the range of 5 to 100 nM.

In the case of `CC(C)(NC(=O)CC1(NC(=O)c2cc(-c3ccc(F)cc3F)on2)CN([C@H]2CC[C@](C)(O)CC2)C1)c1ccccc1C(F)(F)F` [Example 1.291], the half-inhibitory concentration (IC50) is under 5 nM.

On to `Cc1cc(C(C)(C)NC(=O)CC2(NC(=O)c3cn(-c4ccc(F)cc4F)nn3)CN(C3CCCCC3)C2)ccn1` [Example 1.074], for which the half-maximal inhibitory concentration (IC50) is 5 to 100 nM.

The compound `CC(C)(NC(=O)CC1(NC(=O)c2cc(-c3ccc(F)cc3F)on2)CN([C@H]2CC[C@@](C)(O)CC2)C1)c1cccnc1` [Example 1.193] had an IC50 of 5 to 100 nM.

`Cc1cc(C(C)(C)NC(=O)CC2(NC(=O)c3cc(-c4ccc(F)cc4F)on3)CN(C3CCC4(CC3)COC4)C2)ccn1` [Example 1.159] yielded an IC50 of 5 to 100 nM.

Take `CC1(C)CC(N2CC(CC(=O)NC(C)(C)c3cccc(Cl)c3)(NC(=O)c3cc(-c4ccc(F)cc4F)on3)C2)CCO1` (stereo not shown) [Example 1.357]: the IC50 was 5 to 100 nM.

Regarding `Cc1cccnc1C(C)(C)NC(=O)CC1(NC(=O)c2nnc(-c3ccc(F)cc3F)s2)CN([C@H]2CC[C@](C)(O)CC2)C1` [Example 1.012], the IC50 lay in the range of 100 to 1000 nM.

The compound `CC(C)(NC(=O)CC1(NC(=O)c2cc(-c3ccc(F)cc3F)on2)CN([C@H]2CC[C@@](C)(O)CC2)C1)c1cccc(Cl)c1` [Example 1.220] had a 50% inhibitory concentration (IC50) of under 5 nM.

Usually IC50 stands for the point on the concentration scale where inhibition reaches its midpoint. Read a high IC50 as lower potency.
